The target of experiment [1] is T1, human 5-HT2A (Homo sapiens (Human), UniProt P28223). Description: Human 5-HT2A radioligand binding assay ([3H]-ketanserin). Particulars: competition with [3H]-ketanserin; read-out: h5-HT2A IC50.
Experiment [2] deals with human 5-HT2A (h5-HT2A) receptor (Homo sapiens (Human), UniProt P28223). Kind of experiment: FLIPR assay, human 5-HT2A, agonist mode. Particulars: FLIPR calcium assay. The experiment is classed as cell-based. As for the experimental part: 4. […] Vortexed vigorously for 1-2 minutes.
8. 3×compound in assay buffer was prepared: a. Reference compounds were diluted to required concentration with DMSO. […] Serial dilutions were performed; c.
ii. Calculated the percentage activation by using following equation:
% Activation=(RFU compound−RFU low control)/(RFU top concentration of reference agonist−RFU low control)×100%

Experiment [3] has as its target T1, human 5-HT2A. Particulars: cited from earlier work.
The conditions of experiment [4]: DMT and 5-MeO-DMT consumed parenterally; cited from earlier work.
The conditions of experiment [5]: cited from earlier work.

Read-outs that look alike come from different tables or passages of the source.

As for `[2H]c1[nH]c2c([2H])c([2H])c([2H])c([2H])c2c1C1CCNCC1` [Compound 1-1, 3-(piperidin-4-yl)-1H-indole-2,4,5,6,7-d5], in experiment [1], the 50% inhibitory concentration (IC50) fell in the range of 0.5 to 10 µM. Moreover, in experiment [2], the concentration for a half-maximal effect (EC50) fell in the range of 1 to 10 µM.

Turning to `CN(C)CCc1c[nH]c2ccccc12` [DMT, N,N-dimethyltryptamine], the IC50 in experiment [1] is < 0.5 µM. Further, the “binding affinity 5-HT2A” value in experiment [3] is recorded as 0.237 µM. For the same compound, the “duration of action / effects” value in experiment [4] is on record as “less than 1 h”. Consider `[2H]C1([2H])CC(c2c[nH]c3ccc(OC)cc23)C([2H])([2H])N1C` (stereo not drawn) [Compound 1-54, 5-Methoxy-3-(1-methylpyrrolidin-3-yl-2,2,5,5-d4)-1H-indole], for which the 50% inhibitory concentration (IC50) in experiment [1] fell in the range of 0.5 to 10 µM. As to `COc1ccc2[nH]cc(CCN(C)C)c2c1` [Compound 5-MeO-DMT, 5-methoxy-N,N-dimethyltryptamine], the “duration of action / effects” value in experiment [4] is “less than 1 h”.

Take `[2H]c1[nH]c2c([2H])c([2H])c([2H])c([2H])c2c1C1CC([2H])([2H])N(C)C1([2H])[2H]` (stereo not drawn) [Compound 1-44, 3-(1-Methylpyrrolidin-3-yl-2,2,5,5-d4)-1H-indole-2,4,5,6,7-d5]: in experiment [1], the half-inhibitory concentration (IC50) is < 0.5 µM. Further, in experiment [2], the half-maximal effective concentration (EC50) is > 10 µM. For `CN(C)CCc1c[nH]c2cccc(OP(=O)(O)O)c12` [psilocybin, 4-phosphoryloxy-N,N-dimethyltrypatmine], the “duration of action / effects” value in experiment [4] is 5 to 8 h. The abstinence rate is reported as 67% in experiment [5] (12 months follow-up) and 80% in experiment [5] (six months follow-up). `[2H]c1[nH]c2c([2H])c([2H])c([2H])c([2H])c2c1C1CCN(C)C1` (stereo not drawn) [Compound 1-32, 3-(1-Methylpyrrolidin-3-yl)-1H-indole-2,4,5,6,7-d5]: the IC50 in experiment [1] is < 0.5 µM. In addition, the 50% effective concentration (EC50) in experiment [2] was > 10 µM.

As for `[2H]C([2H])([2H])N1CCC(c2c[nH]c3ccccc23)C1` (stereo not drawn) [Compound 1-48], the IC50 in experiment [1] fell in the range of 0.5 to 10 µM.
